Species on record: Rattus norvegicus
Assay: Open TG-GATES - Regimen: Daily Repeat
Assay type: toxicity, organism-based, Sprague-Dawley
Set-up: regimen Daily Repeat, gender Male, age 6 weeks
Conditions: in vivo, po, route gavage; for Eos / Fbg / Hb / Ht / Lym / MCH / MCHC / MCV / Mono / PT / Plat / RBC / Ret / WBC / APTT / Bas: tissue Blood; for KIDNEY_L / KIDNEY_R / KIDNEY_TOTAL: tissue Kidney
[1] = 60 mg/kg, 72 h, dose level Middle, time 3 day
[2] = 60 mg/kg, 72 h, tissue Plasma, dose level Middle, time 3 day
[3] = 60 mg/kg, […], dose level Middle, time 7 day
[4] = 60 mg/kg, […], dose level Middle, time 14 day
[5] = 60 mg/kg, […], dose level Middle, time 28 day
[6] = 60 mg/kg, […], tissue Plasma, dose level Middle, time 7 day
[7] = 60 mg/kg, […], tissue Plasma, dose level Middle, time 14 day
[8] = 60 mg/kg, […], tissue Plasma, dose level Middle, time 28 day
[9] = 200 mg/kg, 72 h, dose level High, time 3 day

SMILES: CC(C)Cc1ccc(C(C)C(=O)O)cc1 (configuration not stated) [IBUPROFEN]
- Eos [1]: 0.8%
- Fbg [1]: 340.8 mg/dL
- Hb [1]: 13.2 g/dL
- Ht [1]: 39%
- Lym [1]: 73.8%
- MCH [1]: 21 pg
- MCHC [1]: 33.9%
- MCV [1]: 61.9 fL
- Mono [1]: 2.6%
- PT [1]: 16 s
- Plat [1]: 115.2 x10_4/uL
- RBC [1]: 629.8 x10_4/ul
- Ret [1]: 6.7%
- WBC [1]: 115.1 x10_2/uL
- KIDNEY_L [1]: 0.9 g
- KIDNEY_R [1]: 1 g
- KIDNEY_TOTAL [1]: 1.9 g
- ALP [2]: 1603.6 IU/L
- ALT [2]: 45 IU/L
- AST [2]: 80.4 IU/L
- BUN [2]: 17.8 mg/dL
- CRE [2]: 0.2 mg/dL
- DBIL [2]: 0 mg/dL
- GLC [2]: 184.6 mg/dL
- IP [2]: 7.2 mg/dL
- K [2]: 4.4 meq/L
- LDH [2]: 237 IU/L
- Na [2]: 141.4 meq/L
- PL [2]: 138.4 mg/dL
- RALB [2]: 2.9 g/dL
- TBIL [2]: 0.002 mg/dL
- TC [2]: 73.4 mg/dL
- TG [2]: 130.8 mg/dL
- TP [2]: 5.4 g/dL
- gamma-GTP [2]: 1.4 IU/L
- TERMINAL_BW [3]: 253.3 g
- TERMINAL_BW [4]: 297.5 g
- TERMINAL_BW [5]: 379.8 g
- APTT [3]: 20.6 s
- Bas [3]: 0%
- Eos [3]: 1%
- Fbg [3]: 313.2 mg/dL
- Hb [3]: 12.9 g/dL
- Ht [3]: 37.4%
- Lym [3]: 68.6%
- MCH [3]: 21.3 pg
- MCHC [3]: 34.4%
- MCV [3]: 62 fL
- Mono [3]: 3%
- PT [3]: 15.8 s
- Plat [3]: 132.1 x10_4/uL
- RBC [3]: 605 x10_4/ul
- Ret [3]: 8.2%
- WBC [3]: 133.5 x10_2/uL
- APTT [4]: 23.6 s
- Bas [4]: 0%
- Eos [4]: 1%
- Fbg [4]: 326.2 mg/dL
- Ht [4]: 41%
- Lym [4]: 75.8%
- MCHC [4]: 33.9%
- MCV [4]: 61.4 fL
- Mono [4]: 2.8%
- PT [4]: 16.1 s
- RBC [4]: 670.4 x10_4/ul
- Ret [4]: 5.7%
- WBC [4]: 126.7 x10_2/uL
- APTT [5]: 24.2 s
- Bas [5]: 0%
- Eos [5]: 1.8%
- Fbg [5]: 333 mg/dL
- Hb [5]: 14.8 g/dL
- Ht [5]: 43.5%
- Lym [5]: 75.2%
- MCH [5]: 19 pg
- MCHC [5]: 34%
- MCV [5]: 56 fL
- Mono [5]: 1.8%
- Plat [5]: 102 x10_4/uL
- RBC [5]: 777.2 x10_4/ul
- Ret [5]: 2.8%
- WBC [5]: 93.9 x10_2/uL
- KIDNEY_L [3]: 1.1 g
- KIDNEY_R [3]: 1.1 g
- KIDNEY_TOTAL [3]: 2.1 g
- KIDNEY_L [4]: 1.2 g
- KIDNEY_R [4]: 1.2 g
- KIDNEY_TOTAL [4]: 2.4 g
- KIDNEY_L [5]: 1.3 g
- KIDNEY_R [5]: 1.4 g
- KIDNEY_TOTAL [5]: 2.7 g
- ALP [6]: 1376 IU/L
- ALT [6]: 44.2 IU/L
- AST [6]: 78 IU/L
- BUN [6]: 18.6 mg/dL
- CRE [6]: 0.2 mg/dL
- DBIL [6]: 0 mg/dL
- GLC [6]: 188.4 mg/dL
- IP [6]: 7.3 mg/dL
- K [6]: 4 meq/L
- LDH [6]: 187.6 IU/L
- Na [6]: 139.2 meq/L
- PL [6]: 154.4 mg/dL
- RALB [6]: 3 g/dL
- TBIL [6]: 0.004 mg/dL
- TC [6]: 75.6 mg/dL
- TG [6]: 136.4 mg/dL
- TP [6]: 5.4 g/dL
- gamma-GTP [6]: 2.4 IU/L
- ALP [7]: 1198.6 IU/L
- ALT [7]: 41.2 IU/L
- AST [7]: 69.2 IU/L
- CRE [7]: 0.2 mg/dL
- DBIL [7]: 0 mg/dL
- GLC [7]: 189.4 mg/dL
- IP [7]: 8.1 mg/dL
- K [7]: 4.1 meq/L
- LDH [7]: 147.6 IU/L
- Na [7]: 141 meq/L
- PL [7]: 154 mg/dL
- RALB [7]: 3 g/dL
- TBIL [7]: 0.004 mg/dL
- TC [7]: 76.6 mg/dL
- TG [7]: 139 mg/dL
- TP [7]: 5.6 g/dL
- gamma-GTP [7]: 2.2 IU/L
- ALP [8]: 1187.4 IU/L
- ALT [8]: 40.8 IU/L
- AST [8]: 67.8 IU/L
- BUN [8]: 20 mg/dL
- CRE [8]: 0.2 mg/dL
- Ca [8]: 10.4 mg/dL
- DBIL [8]: 0 mg/dL
- GLC [8]: 186.2 mg/dL
- IP [8]: 6.7 mg/dL
- K [8]: 3.9 meq/L
- LDH [8]: 150.6 IU/L
- Na [8]: 142.4 meq/L
- PL [8]: 147 mg/dL
- RALB [8]: 3.2 g/dL
- TBIL [8]: 0.002 mg/dL
- TC [8]: 71.8 mg/dL
- TG [8]: 139 mg/dL
- TP [8]: 6 g/dL
- gamma-GTP [8]: 2.6 IU/L
- TERMINAL_BW [9]: 206.3 g
- APTT [9]: 19.6 s

From ChEMBL document CHEMBL3885861, “Open TG-GATES”
